Literature values, collected in US20230172904A1, “COMBINATION OF AN ANTIALLERGIC AGENT WITH MUSCARINIC ANTAGONIST AND/OR DOPAMINERGIC AGONIST FOR USE IN PREVENTING/STOPPING OF AXIAL MYOPIA IN HUMAN” (priority 2016, published 2023).

Key:
axial myopia [1] = test system: axial myopia
axial myopia [2] = conditions: one drop of 1% Atropine collyrium at bedtime, chinese children, placebo controlled

SMILES: CN1[C@@H]2CC[C@H]1C[C@@H](OC(=O)C(CO)c1ccccc1)C2 (stereo partly drawn) [Atropine]
- effect on myopia at reduced doses (axial myopia [1]; dose reduced to 0.1%, 0.05% and 0.01%, children): dose dependent effect of atropine that is still acceptable at the lower concentration
- subjects who developed ocular redness and itching (axial myopia [1]; pediatric population, allergic response of the conjunctiva): around 5%
- subjects in whom the development of axial myopia was halted (stopping the elongation of the bulb) (axial myopia [2]): 90%
